Source: ChEMBL document CHEMBL3885881, “DrugMatrix”

Species on record: Rattus norvegicus
Assay: DrugMatrix - Regimen: Daily Repeat
Format: toxicity, organism-based, Sprague-Dawley
Design: regimen Daily Repeat, gender Male, age 6-8 weeks
Conditions: in vivo, po, 0 mg/kg, route oral GAVAGE, dose level Control, vehicle .5 % CMC; for ABSOLUTE BASOPHIL / ABSOLUTE EOSINOPHIL / ABSOLUTE LYMPHOCYTE / ABSOLUTE MONOCYTE / ABSOLUTE SEGMENTED NEUTROPHIL / BASOPHIL / EOSINOPHIL / ERYTHROCYTE COUNT / HEMATOCRIT / HEMOGLOBIN / LEUKOCYTE COUNT / LYMPHOCYTE / MEAN CORPUSCULAR HEMOGLOBIN / MEAN CORPUSCULAR HEMOGLOBIN CONCENTRATION / MEAN CORPUSCULAR VOLUME / MONOCYTE / NEUTROPHIL / NUCLEATED RED BLOOD CELLS / PLATELET COUNT: tissue Blood; for ALANINE AMINOTRANSFERASE / ALBUMIN / ALKALINE PHOSPHATASE / ASPARTATE AMINOTRANSFERASE / BLOOD UREA NITROGEN / CARBON DIOXIDE / CHLORIDE / CHOLESTEROL / CREATINE PHOSPHOKINASE / CREATININE / GLUCOSE / LACTATE DEHYDROGENASE / LIPASE / PHOSPHORUS / POTASSIUM / SODIUM / TOTAL BILIRUBIN / TOTAL PROTEIN / URIC ACID: tissue Plasma

`Clc1ccc2c(c1)C(N1CCNCC1)=Nc1ccccc1O2` [AMOXAPINE] was tested, and the “ABSOLUTE BASOPHIL” value (72 h, time 3 day) was 0 CELLS/uL, the “ABSOLUTE EOSINOPHIL” value (72 h, time 3 day) was 32.5 CELLS/uL and the “ABSOLUTE LYMPHOCYTE” value (72 h, time 3 day) was 13494.17 CELLS/uL. The “ABSOLUTE MONOCYTE” value (72 h, time 3 day) was 474 CELLS/uL, the “ABSOLUTE SEGMENTED NEUTROPHIL” value (72 h, time 3 day) was 1932.67 CELLS/uL and the BASOPHIL (72 h, time 3 day) was 0%. The EOSINOPHIL (72 h, time 3 day) was 0.17%, the “ERYTHROCYTE COUNT” value (72 h, time 3 day) was 5.45 x10E6/uL and the HEMATOCRIT (72 h, time 3 day) was 34.32%. For the same compound, the HEMOGLOBIN (72 h, time 3 day) was 13.82 G/DL, the “LEUKOCYTE COUNT” value (72 h, time 3 day) was 15.93 x10E3/uL and the LYMPHOCYTE (72 h, time 3 day) was 84.83%. The “MEAN CORPUSCULAR HEMOGLOBIN” value (72 h, time 3 day) was 25.38 pg, the “MEAN CORPUSCULAR HEMOGLOBIN CONCENTRATION” value (72 h, time 3 day) was 40.27 G/DL and the “MEAN CORPUSCULAR VOLUME” value (72 h, time 3 day) was 63.05 fL. For the same compound, the MONOCYTE (72 h, time 3 day) was 3%, the NEUTROPHIL (72 h, time 3 day) was 12% and the “NUCLEATED RED BLOOD CELLS” value (72 h, time 3 day) was 0.67 /100WBC. For the same compound, the “PLATELET COUNT” value (72 h, time 3 day) was 1188.5 x10E3/uL, the “ALANINE AMINOTRANSFERASE” value (72 h, time 3 day) was 54.83 u/L and the ALBUMIN (72 h, time 3 day) was 4.22 G/DL. The “ALKALINE PHOSPHATASE” value (72 h, time 3 day) was 427.67 u/L, the “ASPARTATE AMINOTRANSFERASE” value (72 h, time 3 day) was 86.5 u/L and the “BLOOD UREA NITROGEN” value (72 h, time 3 day) was 15.33 mg/dL. For the same compound, the “CARBON DIOXIDE” value (72 h, time 3 day) was 24.83 mmol/L, the CHLORIDE (72 h, time 3 day) was 102.33 MEQ/L and the CHOLESTEROL (72 h, time 3 day) was 71.67 mg/dL. For the same compound, the “CREATINE PHOSPHOKINASE” value (72 h, time 3 day) was 442.5 u/L, the CREATININE (72 h, time 3 day) was 0.19 mg/dL and the GLUCOSE (72 h, time 3 day) was 160.67 mg/dL. For the same compound, the “LACTATE DEHYDROGENASE” value (72 h, time 3 day) was 236.5 u/L, the LIPASE (72 h, time 3 day) was 9 u/L and the PHOSPHORUS (72 h, time 3 day) was 11.97 mg/dL. For the same compound, the POTASSIUM (72 h, time 3 day) was 6.2 MEQ/L, the SODIUM (72 h, time 3 day) was 142.85 MEQ/L and the “TOTAL BILIRUBIN” value (72 h, time 3 day) was 0.2 mg/dL. For the same compound, the “TOTAL PROTEIN” value (72 h, time 3 day) was 5.8 G/DL, the “URIC ACID” value (72 h, time 3 day) was 1.3 mg/dL and the “ABSOLUTE BASOPHIL” value (120 h, time 5 day) was 0 CELLS/uL. The “ABSOLUTE EOSINOPHIL” value (120 h, time 5 day) was 114.5 CELLS/uL, the “ABSOLUTE LYMPHOCYTE” value (120 h, time 5 day) was 14614 CELLS/uL and the “ABSOLUTE MONOCYTE” value (120 h, time 5 day) was 173 CELLS/uL. The “ABSOLUTE SEGMENTED NEUTROPHIL” value (120 h, time 5 day) was 1048.5 CELLS/uL, the BASOPHIL (120 h, time 5 day) was 0% and the EOSINOPHIL (120 h, time 5 day) was 0.67%. For the same compound, the “ERYTHROCYTE COUNT” value (120 h, time 5 day) was 5.66 x10E6/uL, the HEMATOCRIT (120 h, time 5 day) was 35.52% and the HEMOGLOBIN (120 h, time 5 day) was 14.27 G/DL. For the same compound, the “LEUKOCYTE COUNT” value (120 h, time 5 day) was 15.95 x10E3/uL, the LYMPHOCYTE (120 h, time 5 day) was 91.33% and the “MEAN CORPUSCULAR HEMOGLOBIN” value (120 h, time 5 day) was 25.23 pg. The “MEAN CORPUSCULAR HEMOGLOBIN CONCENTRATION” value (120 h, time 5 day) was 40.2 G/DL, the “MEAN CORPUSCULAR VOLUME” value (120 h, time 5 day) was 62.7 fL and the MONOCYTE (120 h, time 5 day) was 1.17%. The NEUTROPHIL (120 h, time 5 day) was 6.83%, the “NUCLEATED RED BLOOD CELLS” value (120 h, time 5 day) was 0.33 /100WBC and the “PLATELET COUNT” value (120 h, time 5 day) was 1229 x10E3/uL. The “ALANINE AMINOTRANSFERASE” value (120 h, time 5 day) was 58.67 u/L, the ALBUMIN (120 h, time 5 day) was 4.32 G/DL and the “ALKALINE PHOSPHATASE” value (120 h, time 5 day) was 382.5 u/L. The “ASPARTATE AMINOTRANSFERASE” value (120 h, time 5 day) was 81.67 u/L, the “BLOOD UREA NITROGEN” value (120 h, time 5 day) was 17.67 mg/dL and the “CARBON DIOXIDE” value (120 h, time 5 day) was 27.17 mmol/L. The CHLORIDE (120 h, time 5 day) was 102.33 MEQ/L, the CHOLESTEROL (120 h, time 5 day) was 63.67 mg/dL and the “CREATINE PHOSPHOKINASE” value (120 h, time 5 day) was 227.67 u/L. For the same compound, the CREATININE (120 h, time 5 day) was 0.23 mg/dL, the GLUCOSE (120 h, time 5 day) was 155.33 mg/dL and the “LACTATE DEHYDROGENASE” value (120 h, time 5 day) was 146.5 u/L. It also gave an LIPASE (120 h, time 5 day) of 10.67 u/L, a PHOSPHORUS (120 h, time 5 day) of 11.93 mg/dL and a POTASSIUM (120 h, time 5 day) of 6.85 MEQ/L. The SODIUM (120 h, time 5 day) was 143.95 MEQ/L, the “TOTAL BILIRUBIN” value (120 h, time 5 day) was 0.18 mg/dL and the “TOTAL PROTEIN” value (120 h, time 5 day) was 6.02 G/DL. For the same compound, the “URIC ACID” value (120 h, time 5 day) was 1.63 mg/dL.
